According to paper PMC9127750, “Structure-based design of CDC42 effector interaction inhibitors for the treatment of cancer” (Cell reports, 2022):
Where “and” joins values, the source holds several entries; their conditions need not be identical. Equal values may be shown once.

System: WM3248 melanoma cells, 486 antibodies
Test: Reverse phase protein arrays (RPPA)
Type: cell-based, Human
Source text: Pellets were snap frozen in liquid nitrogen and shipped to MD Anderson Cancer Center core RPPA facility for RPPA analysis (Table S5). Three biological replicates for each sample were generated.
Nomenclatures on the RPPA heatmaps: name_of_antibody.species_of_antibody.status_of_antibody. V - antibody validated; C - validation of antibody in progress; Q - antibody nonspecific; E – under evaluation; antibodies raised in M - mouse, G - goat, R - rabbit, or T - rat.

[1] = Norm_20, replicates 1-3 and Average, relative to Norm_0

## CN(C)c1cccc(Nc2cc(-c3ccccc3)nc(C3CCNCC3)n2)c1 [ARN22089, N1,N1-dimethyl-N3-(6-phenyl-2-(piperidin-4-yl)pyrimidin-4-yl)benzene-1,3-diamine]
[1]
  Bax.R.V RPPA signal, normalized: 1.116 and 1.001 and 1.099
  Bcl2.R.C RPPA signal, normalized: 1.192 and 1.263 and 1.147 and 1.201
  Bcl.xL.R.V RPPA signal, normalized: 1.010 and 1.055 and 1.349 and 1.138
  Beclin.R.C RPPA signal, normalized: 0.940 and 1.021 and 1.001
  BiP.GRP78.M.C RPPA signal, normalized: 0.957 and 0.997 and 0.968
  Bid.R.C RPPA signal, normalized: 1.024 and 0.874 and 0.875 and 0.925
  Bim.R.V RPPA signal, normalized: 1.050 and 0.910 and 0.906 and 0.955
  X4E.BP1.R.V RPPA signal, normalized: 0.857 and 0.934 and 2.342 and 1.377
  X4E.BP1_pS65.R.V RPPA signal, normalized: 0.791 and 0.833 and 1.063 and 0.895
  X4E.BP1_pT37_T46.R.V RPPA signal, normalized: 0.867 and 0.753 and 1.126 and 0.915
  X14.3.3.zeta.R.V RPPA signal, normalized: 0.941 and 0.920 and 0.970 and 0.944
  X14.3.3βR.V RPPA signal, normalized: 1.101 and 1.160 and 0.888 and 1.050
  X14.3.3εM.C RPPA signal, normalized: 0.855 and 0.892 and 1.081 and 0.943
  X53BP1.R.V RPPA signal, normalized: 1.138 and 0.986 and 1.047 and 1.057
  b.Actin.R.C RPPA signal, normalized: 1.058 and 1.299 and 1.110 and 1.155
  b.Catenin.R.V RPPA signal, normalized: 0.975 and 0.858 and 1.031 and 0.954
  b.Catenin_pT41_S45.R.V RPPA signal, normalized: 1.047 and 1.076
  c.Abl.R.V RPPA signal, normalized: 1.061 and 1.026 and 1.186
  c.Abl_pY412.R.C RPPA signal, normalized: 1.034 and 0.935 and 1.009 and 0.993
  c.IAP2.R.C RPPA signal, normalized: 1.049 and 1.145 and 1.104 and 1.100
Norm_20 Average
  C.Raf.R.C normalized signal: 0.952
  CA9.R.C normalized signal: 0.890
  CD2.M.C normalized signal: 0.871
  CD4.R.V normalized signal: 1.005
  CD5.M.C normalized signal: 0.944
  CD20.R.C normalized signal: 1.356
  CD26.R.V normalized signal: 1.108
  CD29.M.V normalized signal: 0.892
  CD31.M.V normalized signal: 0.916
  CD44.R.C normalized signal: 1.001
  CD45.M.V normalized signal: 0.902
  CD49b.M.V normalized signal: 1.012
  CD68.M.C normalized signal: 0.968
  CD74.M.V normalized signal: 0.926
  CD134.R.V normalized signal: 0.946
  CD171.M.V normalized signal: 0.712
  CDK1_pT14.R.C normalized signal: 1.008
  CDK9.R.V normalized signal: 0.932
  CDKN2A.R.C normalized signal: 0.921
  CDT1.R.V normalized signal: 0.857
  CENP.A.R.V normalized signal: 1.525
  CRABP1.R.C normalized signal: 0.968
  CRABP2.R.V normalized signal: 0.841
  CREB_pS133.R.C normalized signal: 1.190
  CSK.R.C normalized signal: 0.923
  Calnexin.R.V normalized signal: 0.926
  Caspase.3.cleaved.R.C normalized signal: 1.013
  Caspase.7.cleaved..R.C normalized signal: 1.013
  Caspase.8.M.Q normalized signal: 0.961
  Caspase.8.cleaved.R.C normalized signal: 0.957
  Caveolin.1.R.V normalized signal: 0.866
  Cdc6.R.V normalized signal: 0.851
  Cdc42.R.C normalized signal: 0.996
  Chk1.M.C normalized signal: 0.786
  Chk1_pS345.R.C normalized signal: 1.170
  Chk2.M.V normalized signal: 0.875
  Chk2_pT68.R.C normalized signal: 1.128
  Claudin.7.R.V normalized signal: 1.226
  Collagen.VI.R.V normalized signal: 1.013
  Complex.II.Subunit.M.V normalized signal: 1.002
  Coup.TFII.R.C normalized signal: 1.005
  Cox2.R.C normalized signal: 1.349
  Cox.IV.R.V normalized signal: 0.992
  Creb.R.C normalized signal: 1.053
  CtIP.R.V normalized signal: 0.962
  Cyclin.B1.R.V normalized signal: 0.968
  Cyclin.D1.R.C normalized signal: 0.986
  Cyclin.D3.M.V normalized signal: 0.749
  Cyclin.E1.R.V normalized signal: 0.902
  Cyclophilin.F.M.V normalized signal: 0.934
  D.a.Tubulin.R.V normalized signal: 0.990
  DAPK1_pS308.M.C normalized signal: 2.076
  DAPK2.R.C normalized signal: 1.013
  DDB.1.R.V normalized signal: 0.922
  DDR1.R.V normalized signal: 0.996
  DDR1_pY513.R.C normalized signal: 1.082
  DJ1.R.V normalized signal: 0.929
  DM.Histone.H3.R.V normalized signal: 1.963
  DM.K9.Histone.H3.M.V normalized signal: 1.372
  DNA.Ligase.IV.R.C normalized signal: 0.924
  DNA_POLG.R.V normalized signal: 1.084
  c.Jun_pS73.R.V normalized signal: 0.769
  c.Kit.R.V normalized signal: 1.333
  c.Met_pY1234_Y1235.R.V normalized signal: 1.008
  c.Myc.R.C normalized signal: 0.930
  cGAS.R.V normalized signal: 0.995
  cdc2_pY15.R.C normalized signal: 0.940
  cdc25C.R.V normalized signal: 0.832
Norm_20 replicates
  C.Raf.R.C normalized signal: 0.926 and 0.909 and 1.022
  C.Raf_pS338.R.V normalized signal: 1.047 and 0.977 and 1.202
  CA9.R.C normalized signal: 0.834 and 0.857 and 0.980
  CD2.M.C normalized signal: 0.856 and 0.882 and 0.876
  CD4.R.V normalized signal: 1.114 and 0.892 and 1.008
  CD5.M.C normalized signal: 0.915 and 0.968 and 0.950
  CD20.R.C normalized signal: 1.024 and 1.514 and 1.531
  CD26.R.V normalized signal: 1.033 and 0.940 and 1.351
  CD29.M.V normalized signal: 0.857 and 0.910 and 0.908
  CD31.M.V normalized signal: 0.884 and 0.896
  CD38.R.C normalized signal: 1.108 and 1.163
  CD44.R.C normalized signal: 0.959 and 1.005
  CD45.M.V normalized signal: 0.835 and 0.934
  CD49b.M.V normalized signal: 0.952 and 1.078 and 1.005
  CD68.M.C normalized signal: 0.919 and 0.910
  CD74.M.V normalized signal: 0.908 and 0.967 and 0.901
  CD134.R.V normalized signal: 0.960 and 0.966
  CD171.M.V normalized signal: 0.652 and 0.837 and 0.648
  CDK1_pT14.R.C normalized signal: 1.055 and 0.710 and 1.260
  CDK9.R.V normalized signal: 0.996 and 0.856 and 0.946
  CDKN2A.R.C normalized signal: 0.854 and 0.981 and 0.927
  CDT1.R.V normalized signal: 0.785 and 0.945 and 0.841
  CENP.A.R.V normalized signal: 0.821 and 2.735 and 1.018
  CHD1L.R.V normalized signal: 0.858 and 0.933 and 1.056
  CIITA.R.C normalized signal: 0.943 and 1.115 and 1.149
  COG3.R.V normalized signal: 0.982 and 0.987 and 1.164
  CRABP1.R.C normalized signal: 0.873 and 1.063
  CRABP2.R.V normalized signal: 0.668 and 1.048 and 0.808
  CREB_pS133.R.C normalized signal: 0.993 and 1.115 and 1.463
  CSK.R.C normalized signal: 0.890 and 0.821 and 1.057
  Calnexin.R.V normalized signal: 0.950 and 0.927 and 0.903
  Caspase.3.cleaved.R.C normalized signal: 1.050 and 1.052 and 0.937
  Caspase.7.cleaved..R.C normalized signal: 1.145 and 0.913 and 0.981
  Caspase.8.M.Q normalized signal: 0.921 and 1.010 and 0.953
  Caspase.8.cleaved.R.C normalized signal: 0.981 and 0.904 and 0.986
  Caveolin.1.R.V normalized signal: 0.827 and 0.896 and 0.874
  Cdc6.R.V normalized signal: 1.058 and 0.691 and 0.803
  Cdc42.R.C normalized signal: 0.945 and 1.025 and 1.019
  Chk1.M.C normalized signal: 0.656 and 0.821 and 0.882
  Chk1_pS296.R.V normalized signal: 0.970 and 0.828 and 1.051
  Chk1_pS345.R.C normalized signal: 1.119 and 1.167 and 1.225
  Chk2.M.V normalized signal: 0.658 and 0.864 and 1.104
  Chk2_pT68.R.C normalized signal: 0.997 and 1.290 and 1.096
  Claudin.7.R.V normalized signal: 0.881 and 1.747 and 1.050
  Collagen.VI.R.V normalized signal: 1.201 and 0.989 and 0.848
  Complex.II.Subunit.M.V normalized signal: 0.922 and 0.878 and 1.206
  Connexin.43.R.C normalized signal: 0.931 and 1.019
  Coup.TFII.R.C normalized signal: 1.109 and 0.920 and 0.985
  Cox2.R.C normalized signal: 1.356 and 1.253 and 1.438
  Cox.IV.R.V normalized signal: 1.130 and 0.864 and 0.981
  Creb.R.C normalized signal: 0.982 and 1.104
  CtIP.R.V normalized signal: 0.991 and 0.925 and 0.970
  Cyclin.B1.R.V normalized signal: 0.884 and 0.735 and 1.285
  Cyclin.D1.R.C normalized signal: 0.990 and 1.056 and 0.913
  Cyclin.D3.M.V normalized signal: 0.612 and 0.725 and 0.909
  Cyclin.E1.R.V normalized signal: 0.878 and 0.955 and 0.872
  Cyclophilin.F.M.V normalized signal: 0.906 and 0.884 and 1.010
  D.a.Tubulin.R.V normalized signal: 1.030 and 0.992
  DAPK1_pS308.M.C normalized signal: 1.481 and 2.154 and 2.593
  DAPK2.R.C normalized signal: 0.964 and 1.008
  DDB.1.R.V normalized signal: 1.193 and 0.735 and 0.837
  DDR1.R.V normalized signal: 0.952 and 1.004 and 1.031
  DDR1_pY513.R.C normalized signal: 1.061 and 1.271 and 0.913
  DJ1.R.V normalized signal: 1.006 and 0.828 and 0.954
  DM.Histone.H3.R.V normalized signal: 3.935 and 0.881
  DM.K9.Histone.H3.M.V normalized signal: 2.137 and 0.933
  DNA.Ligase.IV.R.C normalized signal: 0.747 and 1.076
  DNA_POLG.R.V normalized signal: 1.105 and 1.113 and 1.034
  c.Jun_pS73.R.V normalized signal: 0.847 and 0.671 and 0.789
  c.Kit.R.V normalized signal: 1.304 and 1.335 and 1.361
  c.Met_pY1234_Y1235.R.V normalized signal: 1.007 and 1.003 and 1.014
  c.Myc.R.C normalized signal: 0.879 and 0.953 and 0.957
  cGAS.R.V normalized signal: 0.887 and 1.171 and 0.926
  cdc2_pY15.R.C normalized signal: 0.878 and 0.795 and 1.146
  cdc25C.R.V normalized signal: 0.758 and 0.751 and 0.986
